Assay results reported in patent publication US20200390825A1, “PLURIPOTENT STEM CELL-DIRECTED MODEL OF AUTOSOMAL DOMINANT POLYCYSTIC KIDNEY DISEASE FOR DISEASE MECHANISM AND DRUG DISCOVERY” (University of Southern California, priority 2019, published 2020).

Columns and labels:
PKD2−/− organoids [1] = experiment: Primary protein kinase inhibitor screen for cyst formation in mini-kidney organoids; assay type: cell-based, human; details: 1 μM, 9 wells on 3 plates per compound
Procedure: The autoclaved methylcellulose was dissolved in 60° C. 450 ml of Advanced RPMI 1640 Medium (Gibco, 12633020).
Several commercially available libraries of pathway annotated protein kinase inhibitors were purchased from Calbiochem for screening: EMD protein kinase inhibitor 1 (Cat. No. 539744); EMD-protein kinase inhibitor-2 (Cat. No. 539745); EMD protein kinase inhibitor-3 (Cat. No. 539746); EMD protein kinase inhibitor-4 (Cat. No. 539747). All screens were carried out in the Choi Family Therapeutic Screening Facility in the Broad-CIRM center.
Protein kinase inhibitors were diluted in DMSO to make 10 μM stocks. […] The plates were loaded on the ImageXpress Micro System for live imaging right after compounds were loaded. The imaging was performed using the “Standard” algorithm, at 4× magnification, 2 camera binning, with laser-based and image-based focusing enabled, and well-to-well autofocus was set to “focus on plate bottom and well bottom”.
To gain new insight into pathways specifically regulating cystic growth and to validate the mini-organoid system as a robust drug screening tool, we screened a commercial library of pathway annotated protein kinase inhibitors (FIG. 19). The primary screen was performed using a library of 247 protein kinase inhibitors (PKIs) (at 1 μM) on PKD2−/− organoids, with 9 wells on 3 separate plates per compound. […] To increase the stringency of the screen, only compounds identified as “hits” in all 9 wells were considered true “hits” and selected for a secondary screen.

PKD1−/− organoids = experiment: Secondary screen of cystogenesis, dosage-dependent responses; assay type: cell-based, human
Procedure: (§1) 15 g of methelcellulose powder (Sigma-Aldrich, M0512) was autoclaved in a 500-ml Erlenmeyer flask. The autoclaved methylcellulose was dissolved in 60° C. 450 ml of Advanced RPMI 1640 Medium (Gibco, 12633020). 50 ml of Advanced RPMI 1640 Medium+1× Glutamax (Gibco, 35050079) and 1% Penicillin-Streptomycin (Invitrogen, 15070063) was then added at room temperature to a final volume of 500 ml. The final stock solution was cleared by centrifugation at 4000×g for 2 hours. The clear viscous supernatant was used for the spheroid assay. For mini-organoids culture and imaging, 170 μl of 20% methycellulose stock solution+80% basal differentiation media mix was added to each well of a 96-well plate (brand).
(§2) At dd13, miniature kidney organoids were transferred from the EZSPHERE plates to a sterile 35-mm dish by gentle pipetting with wide-bore P1000 tips. Under a dissecting microscope, 10-12 mini-organoids in 10 μl of media were picked up using a P20 pipetman and released into a well of the methylcellulose plate. A P20 pipette tip was then used to adjust the mini-organoids' positions in the well to avoid clustering. The mini-organoids then dispersed at the bottom of the well.
Compounds that were scored as true “hits” from the primary screen were selected for validations in both PKD1−/− and PKD2−/− mutant organoids. […]

PKD2−/− organoids [2] = details: for Inhibition of cyst formation / cystic growth: PKD2−/− mutant organoids, 0.1 μM
Procedure: as §1, §2
Compounds that were scored as true “hits” from the primary screen were selected for validations in both PKD1−/− and PKD2−/− mutant organoids. The compounds were diluted in DMSO to 1, 10 or 100 μM via serial dilution to make the working stocks. At dd14, 20 μl of each diluted compound or DMSO was added to a methylcellulose well with embedded organoids (180 μl) to achieve a final concentration of 0.1, 1 or 10 μM. The plates were imaged for 7 days using the ImageXpress Micro System as described above.
Compounds that inhibited cyst formation in both PKD1−/− and PKD2−/− mini-organoids were classified as final “hits”.
Tolvaptan is the first FDA approved pharmacological treatment for ADPKD targeting cAMP levels through the inhibition of AVPR2.
We examined dosage-dependent responses by applying 3 different compound concentrations of each compound: 0.1, 1 and 10 μM.

| SMILES | Primary screen outcome at dd20 (cystic growth / cell growth inhibition) (PKD2−/− organoids [1]) | also measured |
| --- | --- | --- |
| Cc1ncc2ccccc2c1C#N [4-Cyano-3-methylisoquinoline] | more specific inhibition of cystic growth |  |
| CC(C)C[C@H](NC(=O)[C@H](CCc1ccccc1)NC(=O)CN1CCOCC1)C(=O)N[C@@H](Cc1ccccc1)C(=O)N[C@@H](CC(C)C)C(=O)[C@@]1(C)CO1 [Carfilzomib] |  | Concentration at which cyst formation was prevented (PKD1−/− organoids; PKD1−/− cystic organoids, tested 0.1, 1, 10 μM): only at the highest concentration; Inhibition of cyst formation / cystic growth (PKD2−/− organoids [2]): prevented cyst formation effectively |
| O=C1NCCc2[nH]c(-c3ccncc3)cc21 [Cdc7/Cdk9 inhibitor] | more specific inhibition of cystic growth |  |
| O=C1NC(=NCc2cccs2)S/C1=C\c1ccc2ncccc2c1 [Cdk1 inhibitor IV RO-3306] | more specific inhibition of cystic growth |  |
| CC1=C(O)C(=O)C=C2C1=CC=C1[C@@]2(C)CC[C@@]2(C)[C@@H]3C[C@](C)(C(=O)O)CC[C@]3(C)CC[C@]12C [Celastrol] |  | Effect on cell growth (PKD2−/− organoids [2]; PKD2−/− organoids, 10 μM): more broadly detrimental to cell growth; Screen outcome category (PKD2−/− organoids [2]; PKD2−/− organoids, at 1): hit |
| O=C(c1ccc(Nc2nccc(-c3cc4ccccc4s3)n2)cc1)N1CCC(N2CCCC2)CC1 [IKK inhibitor VII] | more specific inhibition of cystic growth |  |
| NC(=O)Nc1sc(-c2ccccc2)cc1C(N)=O [IKK-2 inhibitor VI, (5-phenyl-2-ureido)thiophene-3-carboxamide] | more specific inhibition of cystic growth |  |
| Nc1ncnc2n[nH]c(Nc3ccc(F)cc3)c12 [MNK1 inhibitor] | more specific inhibition of cystic growth |  |
| Nc1ccc2ncnc(NCCc3ccc(Oc4ccccc4)cc3)c2c1 [NF-κB activation inhibitor] |  | Inhibition of cystic growth (PKD1−/− organoids; PKD1−/− mutants, 0.1 μM): highly effective inhibiting cystic growth; Inhibition of cyst formation / cystic growth (PKD2−/− organoids [2]): highly effective inhibiting cystic growth |
| COc1cccc(-c2cc(=O)c3ccccc3o2)c1N [PD 98059] | more specific inhibition of cystic growth |  |
| CN[C@@H]1C[C@H]2O[C@@](C)([C@@H]1OC)n1c3ccccc3c3c4c(c5c6ccccc6n2c5c31)C(=O)N[C@H]4O [UCN-02, 7-epi-hydroxystaurosporine] | more specific inhibition of cystic growth |  |
| O=C1c2ccccc2-[n+]2ccc3c([nH]c4ccccc43)c21 [fascaplysin] | more specific inhibition of cystic growth |  |
